“Also recorded” adds a separate entry of the source.
Assays:
Assay type in all cases: cell-based
Panc-1 = test: Colony formation assay (clonogenic assay); details: Panc-1, rapamycin alone 1 nM and 10 nM
Experimental: 1.2. Colony formation assay (clonogenic assay) was used to analyze the effect of ZPP or Y29794 on cancer cell survival. 10^3 Panc-1 cells were plated in 100 mm petri dish in triplicate fed with 10 ml of DMEM containing 10% FBS. The cells were then treated by ZPP for 7 days and cultured for additional three weeks. Cells were then rinsed three times with PBS, fixed with 100% ethanol for 15 min, and stained with 2% crystal violet ethanol solution. The stained colonies were counted. All the results are statistically analyzed by one way ANOVA and two tailed t-test.

[1] = system: AKT phosphorylation (S473); test: Immunoblot analysis of AKT phosphorylation in cancer cells; details: 24 hours
Experimental: (§1) 2.2 Immunoblot analysis of gene silencing of PRCP or PREP in cancer cells. Mouse anti-PRCP antibody was purchased from Abcam (Cambridge, Mass., USA). Goat anti-PREP antibody was purchased from R&D Systems (Minneapolis, Minn., USA). Mouse anti-R-actin antibody antibodies was from Santa Cruz Biotechnology (Santa Cruz, Calif., USA). Panc-1 pancreatic cancer cells and MCF7 breast cancer cells were cultured to 80% confluence, cells were rinsed three times with pre-cooled PBS, 500 μl of lysis buffer (150 mmol/L Nacl, 1% Triton-x-100, 50 mmol/l TrispH8.0, 1 mmol/L PMSF, 1 ug/L aprotinin, 1 ug/L leupeptin, 1 ug/L peptain) was added to the cells. Cells were scraped and transferred to a centrifuge tube with a pipette. The lysates were spun in a microcentrifuge at maximal speed for 10 minutes at 4° C. to get rid of the insoluble fraction. Protein concentration was determined by Bradford assay. For immunoprecipitation: 2-5 ug protein-specific antibodies were added to 250-500 ug of lysates in a tube and incubated on an ordital shaker 4° C. for 2-4 hours with moderate shaking, then 20 ul Protein G beads (Santa Cruz Biotechnology (Santa Cruz, Calif., USA.) were added and the mixture was incubated with moderate shaking for another hour. After washing the beads in lysis buffer five times, the immunoprecipitates were boiled in 2× Laemmli sample buffer (50 mmoL/L Tris-HCL (pH8.0), 100 mmoL/L DTT, 2% SDS, 0.1% bromophenol blue, 10% glycerol) for five minutes. The proteins were separated by conventional SDS-polyacrylamide gel electrophoresis (SDS-PAGE) electrophoresis and transferred to Amersham Hybond-P PVDF membrane (GE Company, Pittsburgh, Pa., USA). For immunoblot, the membrane was blocked in 2% BSA in TBST buffer (Tris 1.21 g+NaCl 5.84 g+800 ml H2O adjusted to pH 8.0 with HCl) for one hour and then incubated with primary antibodies in TBST at room temperature (22-25° C.) for 2 hours. After washing three times with TBST, the membrane was incubated with HRP-conjugated secondary antibodies for 0.5 hours at room temperature. After washing the membrane five times with TBST (5 minutes/each), the membrane was incubated with ECL chromogenic reagent (GE Company, Pittsburgh, Pa., USA) for 1-5 minutes. The blots were exposed to films in darkroom for 1-5 minute. The films were developed in an automatic X-OMAT Developer (KODAK, Rochester, N.Y., USA). […] PREP gene silencing (PREP KD) or PRCP gene silencing (PRCP KD) or gene silencing both PRCP and PREP (DKD) in MCF7 cells reduces expression of PREP and/or PRCP proteins compared with control cells (control) (FIGS. 6B & 6C).
3.1 Reduction in AKT phosphorylation is examined by immunoblot using rabbit anti-phospho-AKT […] and rabbit anti-pan AKT antibodies purchased from Cell Signaling Technology (Danvers, Mass., USA) in the cells with gene silencing of PRCP and/or PREP or treated with ZPP or Y29794. Reduction in PRCP and/or PREP is shown by Western blot and quantitative PCR described in 2.2.

IRS-1 = test: Immunoblot analysis of IRS-1 (protein, phosphorylation, half-life, p85 coimmunoprecipitation)
Experimental: as §1
3.2 AKT phosphorylation was examined by immunoblot as described in 3.1. IRS-1 expression was analyzed by immunoblot using anti-IRS-1 antibodies purchased from Santa Cruz Biotechnology (Santa Cruz, Calif., USA). Reduction in PRCP and/or PREP by gene silencing is shown by Western blot and quantitative PCR described in 2.2.
3.4 ZPP or Y29794 inhibits IRS-1 tyrosine phosphorylation and p85 PI3K subunit interaction with IRS-1 and PI3K kinase activity. Panc-1 cells were treated with ZPP (200 μM) or Y29794 (0.5 μM) for 24 hours. Lysates were immunoprecipitated with anti-IRS-1 antibodies and the anti-IRS-1 immunoprecipitates were used for PI3K kinase assay and anti-IRS-1 phospho-tyrosine and anti-p85 immunoblot analysis (FIG. 13). ZPP or Y29794 decreased IRS-1-associated PI3K activity (FIG. 13, upper) and tyrosine phosphorylation of IRS-1 and p85 (FIG. 13, lower).
As described in Example 2.2 and above, the cells with PRCP and PREP gene silencing were used for analysis of PRCP and PREP gene silencing and inhibition of serine phosphorylation and degradation of IRS-1 and its effects on response to rapamycin. […] Compared to control cells, DKD cells show […] serine phosphorylation (S307 and S636/639) of IRS-1 alongside with decreased tyrosine phosphorylation of IRS-1 (FIG. 18B). […]

PI3K [2] = test: PI3K kinase assay in anti-p85 immunoprecipitates; details: Panc-1, 24 hours; ZPP 200 μM, Y29794 0.5 μM or rapamycin alone, vs vehicle
Experimental: (§2) PI3K kinase assay kit (Calbiochem, Bilerica, Mass., USA) was used to measure the IRS-1-associated or p85-associated PI3K kinase activity in cells. The indicated cells were treated with different conditions for 24 hours. The cells were rinsed three times with pre-cooled PBS, lysed in 500 μl of lysis buffer (150 mmol/L Nacl, 1% Triton-x-100, 50 mmol/1 Tris (pH8.0, 1 mmol/L PMSF, 1 μg/L aprotinin, 1 μg/Lleupeptin, 1 μg/L peptain). Cell lysates (500 μg, in triplicate) of were used for anti-IRS-1 or anti-p85 immunoprecipitation. The immunoprecipitates were resuspended in 200 μl assay buffer and mixed with the fluorescence-labeled PI3K substrate BODIPY-TMR-phosphatidylinositol (100 μM) and ATP (37° C.) for 1 hour. The fluorescence intensity was measured with a fluorometer (excitation wavelength of 540 nm, emission wavelength […]). The difference between fluorescence intensity between control immunoprecipitates (no lysates) and lysate immunoprecipitates was used to indicate PI3K kinase activity. IR-1 anti-rabbit antibody and rabbit anti-PI3K p85 antibody were purchased from Millipore Corporation (Billerica, Mass., USA). Panc-1 anti-p85 immunoprecipitates were used for PI3K kinase assay (FIG. 12) and immunoblot analysis (FIG. 12). Rapamycin treatment in control cells increased PI3K kinase activity (P<0.01).

PI3K [3] = test: PI3K kinase assay in anti-IRS-1 immunoprecipitates; details: Panc-1, 24 hours; ZPP 200 μM, Y29794 0.5 μM or rapamycin alone
Experimental: as §2, with “(P<0.01). […]” for “(P<0.01).”

[4] = system: mTOR (S2448) phosphorylation; test: Immunoblot analysis of mTOR phosphorylation; details: Panc-1; rapamycin, or Y29794 1 μM (FIG. 19D)
Experimental: Mouse anti-PRCP antibody was purchased from Abcam (Cambridge, Mass., USA). Goat anti-PREP antibody was purchased from R&D Systems (Minneapolis, Minn., USA). Mouse anti-R-actin antibody antibodies was from Santa Cruz Biotechnology (Santa Cruz, Calif., USA). Panc-1 pancreatic cancer cells and MCF7 breast cancer cells were cultured to 80% confluence, cells were rinsed three times with pre-cooled PBS, 500 μl of lysis buffer (150 mmol/L Nacl, 1% Triton-x-100, 50 mmol/l TrispH8.0, 1 mmol/L PMSF, 1 ug/L aprotinin, 1 ug/L leupeptin, 1 ug/L peptain) was added to the cells. Cells were scraped and transferred to a centrifuge tube with a pipette. The lysates were spun in a microcentrifuge at maximal speed for 10 minutes at 4° C. to get rid of the insoluble fraction. Protein concentration was determined by Bradford assay. For immunoprecipitation: 2-5 ug protein-specific antibodies were added to 250-500 ug of lysates in a tube and incubated on an ordital shaker 4° C. for 2-4 hours with moderate shaking, then 20 ul Protein G beads (Santa Cruz Biotechnology (Santa Cruz, Calif., USA.) were added and the mixture was incubated with moderate shaking for another hour. After washing the beads in lysis buffer five times, the immunoprecipitates were boiled in 2× Laemmli sample buffer (50 mmoL/L Tris-HCL (pH8.0), 100 mmoL/L DTT, 2% SDS, 0.1% bromophenol blue, 10% glycerol) for five minutes. The proteins were separated by conventional SDS-polyacrylamide gel electrophoresis (SDS-PAGE) electrophoresis and transferred to Amersham Hybond-P PVDF membrane (GE Company, Pittsburgh, Pa., USA). For immunoblot, the membrane was blocked in 2% BSA in TBST buffer (Tris 1.21 g+NaCl 5.84 g+800 ml H2O adjusted to pH 8.0 with HCl) for one hour and then incubated with primary antibodies in TBST at room temperature (22-25° C.) for 2 hours. After washing three times with TBST, the membrane was incubated with HRP-conjugated secondary antibodies for 0.5 hours at room temperature. […]

[5] = system: S6K (T389) phosphorylation; test: Immunoblot analysis of S6K phosphorylation; details: Panc-1 cells incl. PRCP and PREP silenced cells, rapamycin (FIG. 18D)
Experimental: 2.2 Immunoblot analysis of gene silencing of PRCP or PREP in cancer cells. Mouse anti-PRCP antibody was purchased from Abcam (Cambridge, Mass., USA). Goat anti-PREP antibody was purchased from R&D Systems (Minneapolis, Minn., USA). Mouse anti-R-actin antibody antibodies was from Santa Cruz Biotechnology (Santa Cruz, Calif., USA). Panc-1 pancreatic cancer cells and MCF7 breast cancer cells were cultured to 80% confluence, cells were rinsed three times with pre-cooled PBS, 500 μl of lysis buffer (150 mmol/L Nacl, 1% Triton-x-100, 50 mmol/l TrispH8.0, 1 mmol/L PMSF, 1 ug/L aprotinin, 1 ug/L leupeptin, 1 ug/L peptain) was added to the cells. Cells were scraped and transferred to a centrifuge tube with a pipette. The lysates were spun in a microcentrifuge at maximal speed for 10 minutes at 4° C. to get rid of the insoluble fraction. Protein concentration was determined by Bradford assay. […]

CO[C@H]1C[C@@H]2CC[C@@H](C)[C@@](O)(O2)C(=O)C(=O)N2CCCC[C@H]2C(=O)O[C@H]([C@H](C)C[C@@H]2CC[C@@H](O)[C@H](OC)C2)CC(=O)[C@H](C)/C=C(\C)[C@@H](O)[C@@H](OC)C(=O)[C@H](C)C[C@H](C)/C=C/C=C/C=C/1C [rapamycin, (3S,6R,7E,9R,10R,12R,14S,15E,17E,19E,21S,23S,26R,27R,34aS)-9,10,12,13,14,21,22,23,24,25,26,27,32,33,34,34a-hexadecahydro-9,27-dihydroxy-3-[(1R)-2-[(1S,3R,4R)-4-hydroxy-3-methoxycyclohexyl]-1-methylethyl]-10,21-dimethoxy-6,8,12,14,20,26-hexamethyl-23,27-epoxy-3H-pyrido[2,1-c][1,4]oxaazacyclohentriacontine-1,5,11,28,29 (4H,6H,31H)-pentone]
cell survival (colony formation) (Panc-1): did not affect | AKT phosphorylation ([1]; MCF7, rapamycin 10 nM): increased; also recorded: induced an increase | AKT phosphorylation ([1]; Panc-1, rapamycin 10 nM): significantly increased; also recorded: induced an increase | IRS-1 protein (IRS-1; MCF7, rapamycin 10 nM, 24 hours): increased; also recorded: induced an increase | tyrosine phosphorylation of IRS-1 (IRS-1; Panc-1, rapamycin 10 nM (FIG. 10A legend)): increased | IRS-1 protein (IRS-1; Panc-1, rapamycin 10 nM, 24 hours): significantly increased; also recorded: induced an increase | serine phosphorylation (S307 and S636/639) of IRS-1 (IRS-1; control Panc-1 cells, rapamycin (FIG. 18D)): inhibits; also recorded: inhibiting | IRS-1 protein (IRS-1; control Panc-1 cells, rapamycin, concentration not given): increases; also recorded: induced increase | PI3K kinase activity (p85-associated) (PI3K [2]): increases; also recorded: significantly elevated | IRS-1-associated PI3K activity (PI3K [3]): increases; also recorded: significantly elevated | mTOR (S2448) phosphorylation [4]: inhibits; also recorded: completely inhibited | phosphorylation of S6K (T389) [5]: completely inhibited
